Columns and labels:
[1] = tested on: ptosis induced by reserpine; experiment: Antagonism of the ptosis induced by reserpine; type: in vivo, female mice CDI (Charles River); settings: Mus musculus, ip, reserpine 2 mg/kg i.v. simultaneously, 1 hour
Experimental: This test, described by GOURET (Journal de Pharmacologie (Paris), 1973, 4 (1), 105-128), was made on the female mice CDI (Charles River), weighing 20±1 g. The reserpine causes a ptosis one hour after intravenous administration thereof; certain antidepressants oppose this ptosis. The following protocol was chosen: The substances to be studied were administered by the i.p. route. […] One hour after administration of reserpine, the number of animals not presenting ptosis is noted. This test was carried out on batches of 10 mice, the results are expressed in percentage of animals not presenting ptosis and are the average of at least two experiments. By way of comparison, the results obtained with the three products of the prior art, Minaprine, CM 30070 and CM 30071 have also been indicated.

despair reaction = experiment: Despair reaction (behavioral despair); type: in vivo, female mouse, CDI (Charles River); settings: one hour before the test; for Behavioral Despair (change of immobility time): immobility between 2nd and 6th minute
Experimental: This test was carried out in the female mouse, CDI (Charles River), weighing 18 to 23 g, according to the method described by Porsolt (Archives Internationales de Pharmacodynamie, 1977, 229, 327-336). The principle of this test is as follows: when a mouse is placed in a narrow recipient, filled with water, it struggles, then, after 2 to 4 mins., it becomes still and floats on its stomach, its back rounded, its rear paws drawn up under its body and it makes only a few movements necessary for maintaining its head out of the water. This reaction is called the despair reaction. Certain psychotherapeutic agents, particularly the antidepressants, extend the time during which the mouse struggles. The following protocol was chosen: The products to be studied were administered by the i.p. route one hour before the test. For the test, the animals are placed in a narrow recipient (10×10×10 cm), filled with water, up to a height of 6 cm, the temperature of the water being 24° C.±2° C. […] Each substance was studied on a batch of 10 mice. The results are the average of at least two experiments.

[2] = Acute toxicity (mortality during 24 hours, i.p.); settings: mouse, in vivo, ip
Experimental: (§1) The products to be studied were administered by the intraperitoneal route at increasing doses to batches of 10 mice. The mortality provoked by the products studied were noted during the 24 hours following administration of the product.
(§2) From the results obtained, the LD 50, i.e. the dose provoking the death of 50% of the animals studied, is determined for each of the products studied.
(§3) Three products of the prior art are given in this Table by way of comparison: […]

mice [3] = settings: mouse, in vivo, ip
Experimental: as §1
During the same experiments, the convulsivant threshold dose of the product is also noted, i.e. the minimum dose for which a convulsivant activity begins to be shown.
as §3

mice [4] = experiment: Acute toxicity (mortality during 24 hours, i.p.); settings: mouse, in vivo, ip, 1440 min
Experimental: as §1, §2, §3

[5] = in vivo; cited from earlier work
[6] = per os; cited from earlier work

For `CCN(CC)CCNc1nnc(-c2ccccc2)cc1C` [CM 30070, reference compound], the ED50 [1] was ~50 mg/kg, the “Behavioral Despair, result in words” value (despair reaction; 25 mg/kg i.p.) was “inactive” and the LD50 at 24 h [2] was 80 mg/kg. The Convulsivant threshold dose (mice [3]) was 60 mg/kg.

In the case of `Cc1cc(-c2ccccc2)nnc1NCCN(C)C` [CM 30071, reference compound], the ED50 [1] is reported as ~50 mg/kg, the “Behavioral Despair, result in words” value (despair reaction; 10 mg/kg i.p.) is reported as “inactive” and the LD50 (mice [4]) is reported as 118 (101-139) mg/kg. The Convulsivant threshold dose (mice [3]) was 100 mg/kg.

With `Cc1cc(-c2ccccc2)nnc1NCCN` [CM 30099, 3-(2-Amino Ethylamino)4-Methyl 6-Phenyl Pyridazine] the ED50 [1] was 16 mg/kg, the “Behavioral Despair (change of immobility time)” value (despair reaction; 10 mg/kg i.p.) was -50% and the LD50 at 24 h ([2]; mice, 24 hours) was > 200 mg/kg. For the same molecule, the Convulsivant threshold dose (mice [3]) was 200 mg/kg.

With `Cc1cc(-c2ccccc2)nnc1NCCCN` [CM 30486, 3-(3-aminopropylamino)4-methyl 6-phenyl pyridazine] the ED50 [1] was ~10 mg/kg, the “Behavioral Despair (change of immobility time)” value (despair reaction; 10 mg/kg i.p.) was -20% and the LD50 at 24 h ([2]; mice, 24 hours) was > 200 mg/kg. For the same molecule, the Convulsivant threshold dose (mice [3]) was > 200 mg/kg.

In the case of `Cc1cc(-c2ccccc2)nnc1NCCCCN` [CM 30487, 3-(4-aminobutylamino)4-methyl 6-phenyl pyridazine], the LD50 at 24 h ([2]; mice, 24 hours) is reported as > 200 mg/kg and the Convulsivant threshold dose (mice [3]) is reported as > 200 mg/kg.

For `Cc1cc(-c2ccccc2)nnc1NCCN1CCOCC1` [Minaprine], the ED50 [1] is listed as 5 mg/kg, the “type of psychotherapeutic action” value [5] is listed as “"disinhibitory" activity” and the “Behavioral Despair (change of immobility time)” value (despair reaction; 10 mg/kg i.p.) is listed as -35%. The “dose at which the product proves convulsivant” value [6] was “higher than 100 mg/kg” and the Convulsivant threshold dose (mice [3]) was 35 mg/kg.

Molecule `NCCNc1nnccc1-c1ccccc1` [SR 95002] has an LD50 at 24 h [2] of ~150 mg/kg and a Convulsivant threshold dose (mice [3]) of 100 mg/kg.

In the case of `CNCCNc1nnc(-c2ccccc2)cc1C` [SR 95029, 2-(2-Methylamino Ethylamino)4-Methyl 6-Phenyl Pyridazine], the LD50 at 24 h ([2]; mice, 24 hours) is reported as > 200 mg/kg and the Convulsivant threshold dose (mice [3]) is reported as 200 mg/kg.

For `Cc1cc(-c2ccc(O)cc2)nnc1NCCN` [SR 95073, 3-(2-Amino Ethylamino)4-Methyl 6-(4-Hydroxy Phenyl)Pyridazine], the LD50 at 24 h ([2]; mice, 24 hours) was > 200 mg/kg and the Convulsivant threshold dose (mice [3]) was > 200 mg/kg.

In the case of `NCCNc1ccc(-c2ccccc2)nn1` [SR 95085], the LD50 at 24 h [2] is reported as > 200 mg/kg and the Convulsivant threshold dose (mice [3]) is reported as > 200 mg/kg.

For `NCCNc1cc(-c2ccccc2)cnn1` [SR 95086], the LD50 at 24 h [2] was > 200 mg/kg and the Convulsivant threshold dose (mice [3]) was > 200 mg/kg.

— US4508720A, “Amino derivatives of pyridazine, and compositions thereof for the central nervous system” (Sanofi, priority 1981, dated 1985)
